Reference: ChEMBL document CHEMBL1128892, “Pharmacological evaluation of UK-14,304 analogs at cloned human adrenergic receptors” (Bioorg Med Chem Lett, 1995)
The source made the active and inactive calls. The calls are words filed in the database; no cut-off is given here.

Legend:
[1] = biological target: T1, Alpha-2C adrenergic receptor (Homo sapiens, UniProt P18825); test: Alpha-2C adrenergic receptor agonistic potency as inhibition of forskolin-stimulated cyclic adenosine monophosphate synthesis; type: functional
T1 sequence (P18825 whole entry): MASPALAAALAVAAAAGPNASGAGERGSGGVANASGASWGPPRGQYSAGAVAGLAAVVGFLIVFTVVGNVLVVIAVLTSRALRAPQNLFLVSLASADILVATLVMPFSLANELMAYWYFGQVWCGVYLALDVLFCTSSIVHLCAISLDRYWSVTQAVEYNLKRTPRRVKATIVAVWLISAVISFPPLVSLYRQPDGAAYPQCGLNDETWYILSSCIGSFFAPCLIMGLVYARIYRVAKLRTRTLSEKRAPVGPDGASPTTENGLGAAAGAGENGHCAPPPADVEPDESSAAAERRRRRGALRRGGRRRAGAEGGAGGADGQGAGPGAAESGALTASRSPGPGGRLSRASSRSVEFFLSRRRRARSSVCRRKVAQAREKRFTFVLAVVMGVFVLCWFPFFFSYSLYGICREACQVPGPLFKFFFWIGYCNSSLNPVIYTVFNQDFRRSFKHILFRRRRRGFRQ

[2] = biological target: T2, Alpha-2A adrenergic receptor (Homo sapiens, UniProt P08913); test: Alpha-2A adrenergic receptor agonistic potency as inhibition of forskolin-stimulated synthesis of cyclic adenosine monophosphate; type: functional
T2 sequence (P08913 whole entry): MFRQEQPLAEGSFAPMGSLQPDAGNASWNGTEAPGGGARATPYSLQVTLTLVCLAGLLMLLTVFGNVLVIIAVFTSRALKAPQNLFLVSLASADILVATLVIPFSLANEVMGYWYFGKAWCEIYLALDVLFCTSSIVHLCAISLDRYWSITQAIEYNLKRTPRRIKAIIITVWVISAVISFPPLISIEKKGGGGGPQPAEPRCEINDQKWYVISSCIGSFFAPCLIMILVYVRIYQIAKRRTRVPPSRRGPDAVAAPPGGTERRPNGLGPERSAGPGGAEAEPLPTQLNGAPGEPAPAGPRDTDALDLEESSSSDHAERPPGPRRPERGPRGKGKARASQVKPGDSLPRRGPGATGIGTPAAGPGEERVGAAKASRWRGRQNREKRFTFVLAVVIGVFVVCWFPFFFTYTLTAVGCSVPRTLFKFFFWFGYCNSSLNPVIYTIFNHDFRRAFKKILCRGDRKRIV

[3] = biological target: T3, Alpha-2B adrenergic receptor (Homo sapiens, UniProt P18089); test: Alpha-2B adrenergic receptor agonistic potency as inhibition of forskolin-stimulated cyclic adenosine monophosphate synthesis; type: functional
T3 sequence (P18089 whole entry): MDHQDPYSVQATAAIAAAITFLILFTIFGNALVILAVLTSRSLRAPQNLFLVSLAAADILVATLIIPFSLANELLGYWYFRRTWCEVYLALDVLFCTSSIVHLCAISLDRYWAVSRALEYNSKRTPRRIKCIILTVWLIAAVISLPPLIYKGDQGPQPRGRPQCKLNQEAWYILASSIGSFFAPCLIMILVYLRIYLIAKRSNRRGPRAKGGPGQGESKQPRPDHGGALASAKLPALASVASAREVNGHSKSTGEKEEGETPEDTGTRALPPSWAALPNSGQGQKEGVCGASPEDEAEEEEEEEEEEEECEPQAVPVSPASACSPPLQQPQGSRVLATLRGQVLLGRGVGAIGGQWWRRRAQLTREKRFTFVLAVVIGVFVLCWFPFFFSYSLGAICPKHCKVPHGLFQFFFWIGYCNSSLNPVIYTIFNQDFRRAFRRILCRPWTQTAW

[4] = biological target: T4, Alpha-2A adrenergic receptor (Homo sapiens) (UniProt P08913); test: Inhibitory activity against Alpha-2A adrenergic receptor relative to norepinephrine
T4 sequence (whole entry): T2 sequence (P08913 whole entry)

[5] = biological target: T3, Alpha-2B adrenergic receptor; test: Binding affinity for human Alpha-2B adrenergic receptor from cultured Y-1 cells using [3H]rauwolscine; type: cell-based
[6] = biological target: T5, Alpha-1A adrenergic receptor (Homo sapiens, UniProt P35348); test: Binding affinity for human Alpha-1A adrenergic receptor from cultured LM(tk-) cells using [3H]-prazosin
T5 sequence (P35348 whole entry): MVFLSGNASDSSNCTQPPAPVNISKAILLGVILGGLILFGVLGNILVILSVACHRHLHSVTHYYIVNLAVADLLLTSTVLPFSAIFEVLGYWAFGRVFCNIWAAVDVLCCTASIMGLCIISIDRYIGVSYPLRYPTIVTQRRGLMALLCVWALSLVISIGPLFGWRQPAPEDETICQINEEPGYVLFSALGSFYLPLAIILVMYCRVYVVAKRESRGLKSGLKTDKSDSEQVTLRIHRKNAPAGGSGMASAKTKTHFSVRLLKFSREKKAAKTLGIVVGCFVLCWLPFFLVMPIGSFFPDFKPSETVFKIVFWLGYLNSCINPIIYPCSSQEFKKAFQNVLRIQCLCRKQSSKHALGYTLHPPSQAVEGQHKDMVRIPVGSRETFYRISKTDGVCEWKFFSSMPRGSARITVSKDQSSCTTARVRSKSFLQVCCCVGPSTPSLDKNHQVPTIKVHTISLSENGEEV

[7] = biological target: T1, Alpha-2C adrenergic receptor; test: Binding affinity for human Alpha-2C adrenergic receptor from cultured LM(tk-) cells using [3H]- prazosin
[8] = biological target: T6, Alpha-1D adrenergic receptor (Homo sapiens, UniProt P25100); test: Binding affinity for human Alpha-1D adrenergic receptor from cultured LM(tk-) cells using [3H]- prazosin
T6 sequence (P25100 whole entry): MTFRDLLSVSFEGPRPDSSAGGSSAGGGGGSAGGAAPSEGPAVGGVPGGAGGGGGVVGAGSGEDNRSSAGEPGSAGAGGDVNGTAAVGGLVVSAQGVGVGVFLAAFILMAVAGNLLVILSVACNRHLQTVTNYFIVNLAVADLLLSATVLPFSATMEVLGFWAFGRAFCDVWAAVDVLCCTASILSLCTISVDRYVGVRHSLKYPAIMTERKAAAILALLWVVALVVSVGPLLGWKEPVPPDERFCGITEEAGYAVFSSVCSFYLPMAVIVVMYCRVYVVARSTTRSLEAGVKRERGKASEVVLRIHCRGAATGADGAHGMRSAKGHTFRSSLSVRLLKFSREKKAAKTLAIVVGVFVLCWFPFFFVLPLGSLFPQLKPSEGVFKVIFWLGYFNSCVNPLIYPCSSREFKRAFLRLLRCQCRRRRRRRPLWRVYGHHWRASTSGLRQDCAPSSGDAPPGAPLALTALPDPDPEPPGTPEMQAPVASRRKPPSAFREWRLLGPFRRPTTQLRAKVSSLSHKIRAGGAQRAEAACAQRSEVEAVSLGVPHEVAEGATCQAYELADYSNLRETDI

[9] = biological target: T2, Alpha-2A adrenergic receptor; test: Binding affinity for human Alpha-2A adrenergic receptor from cultured LM(tk-) cells using [3H]rauwolscine
[10] = biological target: T7, Alpha-1B adrenergic receptor (Homo sapiens, UniProt P35368); test: Binding affinity for human Alpha-1B adrenergic receptor from cultured LM(tk-) cells using [3H]prazosin
T7 sequence (P35368 whole entry): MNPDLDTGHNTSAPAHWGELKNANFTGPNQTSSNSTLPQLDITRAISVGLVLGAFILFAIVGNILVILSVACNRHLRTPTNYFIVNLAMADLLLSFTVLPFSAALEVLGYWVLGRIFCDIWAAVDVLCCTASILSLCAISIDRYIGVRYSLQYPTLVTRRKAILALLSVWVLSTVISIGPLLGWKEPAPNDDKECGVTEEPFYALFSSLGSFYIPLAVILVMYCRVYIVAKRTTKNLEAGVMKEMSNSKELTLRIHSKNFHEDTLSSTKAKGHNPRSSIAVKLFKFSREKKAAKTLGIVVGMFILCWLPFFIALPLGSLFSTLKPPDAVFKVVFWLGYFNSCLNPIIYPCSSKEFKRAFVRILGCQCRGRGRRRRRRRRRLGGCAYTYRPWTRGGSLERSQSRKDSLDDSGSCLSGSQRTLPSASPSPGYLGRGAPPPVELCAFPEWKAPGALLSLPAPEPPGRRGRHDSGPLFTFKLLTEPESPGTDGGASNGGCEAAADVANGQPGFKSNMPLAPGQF

[11] = biological target: T8, Alpha-2C adrenergic receptor (Homo sapiens) (UniProt P18825); test: Inhibitory activity against Alpha-2C adrenergic receptor relative to norepinephrine
T8 sequence (whole entry): T1 sequence (P18825 whole entry)

[12] = biological target: T9, Alpha-2B adrenergic receptor (Homo sapiens) (UniProt P18089); test: Inhibitory activity against Alpha-2B adrenergic receptor relative to norepinephrine at 100 uM; Not active
T9 sequence (whole entry): T3 sequence (P18089 whole entry)

[13] = biological target: T9, Alpha-2B adrenergic receptor (Homo sapiens); test: The Alpha-2B adrenergic receptor agonistic potency for its ability to inhibit forskolin-stimulated synthesis of cyclic adenosine monophosphate at 100 uM concentration; Not active; type: functional
[14] = biological target: T8, Alpha-2C adrenergic receptor (Homo sapiens); test: Inhibitory activity against Alpha-2C adrenergic receptor relative to norepinephrine at 100 uM; Not active
[15] = biological target: T8, Alpha-2C adrenergic receptor (Homo sapiens); test: Alpha-2C adrenergic receptor agonistic potency as inhibition of forskolin-stimulated cyclic adenosine monophosphate synthesis at 100 uM; Not active; type: functional
[16] = biological target: T9, Alpha-2B adrenergic receptor (Homo sapiens); conditions: 100 uM
[17] = biological target: T9, Alpha-2B adrenergic receptor (Homo sapiens); test: Inhibitory activity against alpha-2B adrenoceptor relative to norepinephrine at 100 uM; Not active
[18] = biological target: T3, Alpha-2B adrenergic receptor; test: Binding affinity for human alpha-2B adrenoceptor from cultured Y-1 cells using [3H]rauwolscine; type: cell-based
[19] = biological target: T4, Alpha-2A adrenergic receptor (Homo sapiens); test: Alpha-2A adrenergic receptor agonistic potency as inhibition of forskolin-stimulated cyclic adenosine monophosphate synthesis at 100 uM; Not active; type: functional
[20] = biological target: T4, Alpha-2A adrenergic receptor (Homo sapiens); test: Inhibitory activity against Alpha-2A adrenergic receptor relative to norepinephrine at 100 uM; Not active
[21] = biological target: T3, Alpha-2B adrenergic receptor; test: Binding affinity for human Alpha-2B adrenergic receptor from cultured LM(tk-) cells using [3H]- prazosin
[22] = biological target: T8, Alpha-2C adrenergic receptor (Homo sapiens); conditions: 100 uM

| SMILES | EC50 [1] | EC50 [2] | Intrinsic activity [4] | Ki [5] | Ki [6] | Ki [7] | Ki [8] | Ki [9] | Ki [10] | Intrinsic activity [11] | Intrinsic activity [12] | Log EC50 [13] | Intrinsic activity [14] | also measured |
| --- | --- | --- | --- | --- | --- | --- | --- | --- | --- | --- | --- | --- | --- | --- |
| Clc1c(NC2=NCCN2)ccc2nccnc12 | 30.9 nM | 2.34 nM | 1 | 69.2 nM | 5130 nM | 195 nM | 2400 nM | 37.2 nM | 10500 nM | 1 |  |  |  | EC50 [3]: 174 nM |
| CC1CN=C(Nc2ccc3nccnc3c2Br)N1 (stereo unspecified) | 832 nM | 15800 nM | 0.8 | 3240 nM | > 100000 nM | 646 nM | 5010 nM | 3800 nM | > 100000 nM | 0.8 | inactive | inactive |  |  |
| Brc1c(NC2=NCCN2)ccc2nccnc12 [BRIMONIDINE] |  |  | 1 |  |  |  | 933 nM |  | 5370 nM | 1 |  |  |  |  |
| Cc1cnc2c(Br)c(NC3=NCCN3)ccc2n1 | 832 nM | 851 nM | 1 | 324 nM | > 100000 nM | 646 nM | 5010 nM | 74.1 nM | > 100000 nM | 0.8 | inactive | inactive |  |  |
| Brc1c(NC2=NCCS2)ccc2nccnc12 |  | 2750 nM | 0.9 | 17400 nM | 21400 nM | 28200 nM | 27500 nM | 10200 nM | 60300 nM |  | inactive | inactive | inactive | Log EC50 [15]: inactive |
| Ic1c(NC2=NCCN2)ccc2nccnc12 | 55 nM | 11.5 nM | 1 |  | 977 nM | 407 nM | 282 nM | 6.76 nM | 1910 nM | 1 |  |  |  | Log EC50 [16]: inactive; Intrinsic activity [17]: inactive; Ki [18]: 42.7 nM |
| Brc1c(NC2=NCCN2)ccc2c1NCCN2 | 105 nM | 2.82 nM | 1 | 49 nM | 1120 nM | 214 nM | 2690 nM | 6.46 nM | 4370 nM | 1 |  |  |  | EC50 [3]: 891 nM |
| Brc1c(NC2=N[C@@H]3CCCC[C@@H]3N2)ccc2nccnc12 |  |  |  | 18200 nM | 14100 nM | 11500 nM | 41700 nM | 14800 nM | 105000 nM |  | inactive | inactive | inactive | Log EC50 [19]: inactive; Intrinsic activity [20]: inactive; Log EC50 [15]: inactive |
| Cc1c(NC2=NCCN2)ccc2nccnc12 | 14.1 nM | 1.2 nM | 1 |  | 1480 nM | 28.2 nM | 562 nM | 7.24 nM | 3310 nM | 1 |  |  |  | EC50 [3]: 77.6 nM; Ki [21]: 8.91 nM |
| c1cnc2cc(NC3=NCCN3)ccc2n1 |  |  |  | 219 nM | 18200 nM | 1410 nM | 12300 nM | 309 nM | 3240 nM |  | inactive | inactive | inactive | Log EC50 [22]: inactive; Log EC50 [19]: inactive; Intrinsic activity [20]: inactive |
| Brc1c(NC2=NCCO2)ccc2nccnc12 |  |  |  | 85100 nM | 91200 nM | 49000 nM | 102000 nM | 26300 nM | 141000 nM |  | inactive | inactive | inactive | Log EC50 [19]: inactive; Intrinsic activity [20]: inactive; Log EC50 [15]: inactive |
